Laboratory results as given in patent US20170233409A1, “TYPE IV SECRETION SYSTEM INHIBITORS” (priority 2016, published 2017).
pEC50: −log10 of the molar value.

Tests used:
H. pylori cag T4SS = assay type: cell-based; conditions: for T4SS Inhibiton [50 μM] (TLR9 Activation Assay): no bacterial pre-treatment, about 18 hours post-infection, HEK293-TLR9 cells
H. pylori = H. pylori viability (cellular ATP, CellTiter-Glo); assay type: cell-based; conditions: for H. pylori Toxicity: 150 μM, cellular ATP at 18 h of incubation; for viability of bacterial cells: concentrations up to 150 μM
cag T4SS [1] = assay type: cell-based, H. pylori; conditions: for LogEC50, attenuation of cag T4SS-dependent IL-8 secretion / pEC50: 4.5 h co-culture, normalized IL-8 secretion, non-linear regression; for cag T4SS-dependent IL-8 secretion: H. pylori-gastric epithelial cell co-culture, 25-150 μM; for pEC50: read-out: EC50, attenuation of cag T4SS-dependent IL-8 secretion
cag T4SS [2] = assay: NF-κB luciferase reporter activation by H. pylori in AGS cells; assay type: cell-based; conditions: for cag T4SS-dependent NF-κB activation: WT H. pylori, AGS NF-κB-luc cells
Method: Quantitation of NF-κB signaling activation. AGS cells stably transfected with an NF-κB-luciferase reporter (AGS NF-κB-luc) were cultured for 24 h and treated as described for the IL-8 induction studies. After 4 h co-culture with H. pylori, cell monolayers were washed with sterile PBS, and cell monolayer extracts were obtained by passive cell lysis. NF-κB-luciferase activity was measured by the Steady-Glo Luciferase Assay System (Promega) on a BioTek Synergy 4 plate reader, and plates were normalized to the DMSO vehicle control for each dilution series.

cag T4SS [3] = assay: CagA translocation assay (tyrosine-phosphorylated CagA immunoblot); assay type: cell-based, H. pylori; conditions: 150 μM; compared to vehicle-only and GKP42-treated controls
TLR9 = biological target: T1, TLR9 (Homo sapiens, UniProt Q9NR96); assay: TLR9 activation by CpG ODN (control); assay type: cell-based; conditions: 50 μM
T1 construct: host or cells: HEK293-TLR9 reporter cell line
T1 sequence (Q9NR96 26-1032): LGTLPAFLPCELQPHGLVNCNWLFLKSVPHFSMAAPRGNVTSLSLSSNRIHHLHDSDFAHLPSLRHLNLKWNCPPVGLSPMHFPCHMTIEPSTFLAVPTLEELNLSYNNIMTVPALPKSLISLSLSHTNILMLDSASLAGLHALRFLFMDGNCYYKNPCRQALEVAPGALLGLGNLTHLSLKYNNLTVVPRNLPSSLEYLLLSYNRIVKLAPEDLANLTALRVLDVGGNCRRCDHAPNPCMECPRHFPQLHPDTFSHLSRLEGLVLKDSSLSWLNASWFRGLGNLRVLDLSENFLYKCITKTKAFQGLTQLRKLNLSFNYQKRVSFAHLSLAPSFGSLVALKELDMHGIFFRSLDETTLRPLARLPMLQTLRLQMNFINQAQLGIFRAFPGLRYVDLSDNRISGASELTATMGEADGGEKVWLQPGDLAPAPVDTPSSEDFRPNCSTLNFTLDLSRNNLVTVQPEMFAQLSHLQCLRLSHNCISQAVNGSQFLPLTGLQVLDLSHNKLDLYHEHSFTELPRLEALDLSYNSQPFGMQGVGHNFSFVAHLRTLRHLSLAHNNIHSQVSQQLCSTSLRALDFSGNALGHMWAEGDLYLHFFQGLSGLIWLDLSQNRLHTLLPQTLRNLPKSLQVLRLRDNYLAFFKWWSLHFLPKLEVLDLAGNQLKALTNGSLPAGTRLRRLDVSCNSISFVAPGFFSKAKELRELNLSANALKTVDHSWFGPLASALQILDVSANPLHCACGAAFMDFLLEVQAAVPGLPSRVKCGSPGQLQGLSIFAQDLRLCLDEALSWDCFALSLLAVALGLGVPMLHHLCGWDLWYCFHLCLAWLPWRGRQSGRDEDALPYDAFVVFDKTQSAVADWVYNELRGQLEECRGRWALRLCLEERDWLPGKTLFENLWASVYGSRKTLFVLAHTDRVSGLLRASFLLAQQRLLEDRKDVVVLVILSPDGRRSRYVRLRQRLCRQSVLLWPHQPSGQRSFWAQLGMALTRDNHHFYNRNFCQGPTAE
Method: Inhibition of T4SS-dependent activation of human TLR9 signaling by H. pylori. H. pylori strain J166 was grown in broth culture overnight, and was subsequently pre-treated in the indicated compound at a final concentration of 50 μM, or in an equivalent volume of DMSO vehicle for 30 min prior to inoculating cultured HEK293-TLR9 reporter cell lines. Co-cultures were incubated in the presence of 50 μM compound or an equivalent volume of DMSO vehicle supplemented in the cell culture media for the duration of incubation (18 hours). TLR9 activation was assayed using a colorimetric assay (Invivogen), and TLR9 activation in the presence of type IV secretion system (T4SS) inhibitor compounds is expressed as a percentage of TLR9 activation by H. pylori in the presence of vehicle. As a control, TLR9 was activated with the immunostimulatory synthetic ligand CpG oligodeoxynucleotide (CpG ODN) in the presence of DMSO or inhibitor compound at 50 μM final concentration.

[4] = system: IncF group R1-16 conjugative T4SS; assay: DNA conjugation efficiency, R1-16; conditions: 150 μM
Method: (§1) Analysis of DNA conjugation efficiency. Overnight cultures of donor E. coli MG1655 harboring pKM101, donor E. coli MS411 harboring R1-16, and recipient E. coli MG1655 (WM1652) were grown at 37° C. with shaking at 225 rpm in LB/antibiotic, were diluted in antibiotic-free LB containing DMSO or 150 μM compound, and incubated with shaking at 37° C. to reach an OD600 of ˜0.3. Donor and recipient cells were mixed at a ratio of 1:1 on 0.22 μM pore size mixed cellulose ester filters (Millipore) on antibiotic-free LB plates for 2 h at 37° C. Filters were aseptically removed from LB plates and incubated in 100 μl antibiotic-free LB to dislodge E. coli from membranes. Serial dilutions were plated on the appropriate antibiotic (or dual antibiotic) LB plates to determine the number of donor, recipient, and transconjugant cells. Colonies were enumerated after 24 h, and conjugation efficiencies were calculated by dividing the average number of transconjugates by the average number of donors (either pKM101 or R1-16 donor cells). Conjugation efficiency in the presence of compound is expressed as a percentage of conjugation efficiency in DMSO.

[5] = system: IncN group conjugative T4SS encoded by pKM101; assay: DNA conjugation efficiency, pKM101; conditions: 150 μM, compared to vehicle controls
Method: as §1

cag T4SS [6] = assay type: cell-based, H. pylori; conditions: screening library, tested concentrations

Structure (SMILES): O=C(O)C1CSc2c(C3CC3)c(Cc3cccc4ccccc34)cc(=O)n21 (racemic) [rac-C10]
- T4SS Inhibiton [50 μM] (TLR9 Activation Assay) (H. pylori cag T4SS): ++

Structure (SMILES): CCOc1ccc(Cc2cc(=O)n3c(c2C2CC2)SC[C@H]3C(=O)O)c2ccccc12 [(R)-JG131, (R)-8-cyclopropyl-7-((4-ethoxynaphthalen-1-yl)methyl)-5-oxo-2,3-dihydro-5H-thiazolo[3,2-a]pyridine-3-carboxylic acid]
- T4SS Inhibiton [50 μM] (TLR9 Activation Assay) (H. pylori cag T4SS): +++ (Very good T4SS inhibition (reproducibly inhibits T4SS activity by at least 50%, with representative results of about 80% inhibition at higher concentrations))

Structure (SMILES): COc1ccc(Cc2cc(=O)n3c(c2C2CC2)SC[C@@H]3C(=O)O)c2ccccc12 [(S)-JG202, (S)-8-cyclopropyl-7-((4-methoxynaphthalen-1-yl)methyl)-5-oxo-2,3-dihydro-5H-thiazolo[3,2-a]pyridine-3-carboxylic acid]
- T4SS Inhibiton [50 μM] (TLR9 Activation Assay) (H. pylori cag T4SS): ++

Structure (SMILES): O=C(O)[C@@H]1CSc2c(-c3cccc(C(F)(F)F)c3)c(Cc3cccc(COc4cccc5ccccc45)c3)cc(=O)n21 [CB151]
- H. pylori Toxicity (H. pylori): Toxic

Structure (SMILES): COc1ccc2cc(Cc3cc(=O)n4c(c3C3CC3)SC[C@H]4C(=O)O)ccc2c1 [CB158, (R)-8-cyclopropyl-7-((6-methoxynaphthalen-2-yl)methyl)-5-oxo-2,3-dihydro-5H-thiazolo[3,2-a]pyridine-3-carboxylic acid]
- T4SS Inhibiton [50 μM] (TLR9 Activation Assay) (H. pylori cag T4SS): +

Structure (SMILES): O=C(O)[C@@H]1CSc2c(C3CC3)c(Cc3cccc(COc4cccc5ccccc45)c3)cc(=O)n21 [CB160]
- H. pylori Toxicity (H. pylori): Toxic

Structure (SMILES): O=C(O)[C@@H]1CSc2c(C3CC3)c(Cc3cccc4ccccc34)cc(=O)n21 [Compound C10, (3R)-8-cyclopropyl-7-(naphthalen-1-ylmethyl)-5-oxo-3,5-dihydro-2H-thiazolo[3,2-a]pyridine-3-carboxylic acid]
- viability of bacterial cells (H. pylori): did not impact viability
- LogEC50, attenuation of cag T4SS-dependent IL-8 secretion (cag T4SS [1]): −1.19
- cag T4SS-dependent IL-8 secretion (cag T4SS [1]): significantly reduced
- pEC50 (cag T4SS [1]): 4.19
- cag T4SS-dependent NF-κB activation (cag T4SS [2]): significantly reduced
- cag T4SS-mediated NF-κB activation by H. pylori strains of different phylogeographic origins (cag T4SS [2]; multiple H. pylori strains): inhibited
- NF-κB activation by H. pylori ΔcagA mutant compared to WT strain (cag T4SS [2]; ΔcagA mutant): the same as those observed in the WT strain
- amount of tyrosine-phosphorylated CagA in cultured gastric epithelial cells (cag T4SS [3]): significantly reduced
- T4SS Inhibiton [50 μM] (TLR9 Activation Assay) (H. pylori cag T4SS): ++
- T4SS-dependent activation of TLR9 by H. pylori (H. pylori cag T4SS; strain J166 pre-treated 30 min, 50 μM, 18 hours): inhibit
- activation of TLR9 by CpG ODN (TLR9): not by CpG ODN
- DNA conjugation efficiency of the de-repressed R1-16 system [4]: reduced DNA transfer
- DNA conjugation efficiency of pKM101 [5]: reduced

Structure (SMILES): O=c1cc(Cc2cccc3ccccc23)c(C2CC2)c2n1CCS2 [EC013]
- T4SS Inhibiton [50 μM] (TLR9 Activation Assay) (H. pylori cag T4SS): +++ (Very good T4SS inhibition (reproducibly inhibits T4SS activity by at least 50%, with representative results of about 80% inhibition at higher concentrations))

Structure (SMILES): O=C(O)c1c(Cc2ccccc2)sc2c(C3CC3)c(Cc3cccc4ccccc34)cc(=O)n12 [EC240, reference compound]
- cag T4SS activity, structure-activity statements (cag T4SS [6]): not tolerated
- H. pylori Toxicity (H. pylori): Toxic

Structure (SMILES): Cc1cccc(-c2sc3c(-c4cn(C)c5ccccc45)c(COc4cccc5ccccc45)c(CN4CCOCC4)c(=O)n3c2C(=O)O)c1.Cl [EC341]
- H. pylori Toxicity (H. pylori): Toxic

Structure (SMILES): O=C(O)[C@@H]1CSc2c(-c3cccc(C(F)(F)F)c3)c(Cc3cccc4ccccc34)cc(=O)n21 [FN075, reference compound]
- cag T4SS activity, structure-activity statements (cag T4SS [6]): not tolerated
- H. pylori Toxicity (H. pylori): Toxic

Structure (SMILES): O=C(O)[C@@H]1CSc2c(C3CC3)c3cn(-c4ccccc4)cc3c(=O)n21 [GKP42, (3R)-9-cyclopropyl-5-oxo-7-phenyl-2,3,5,7-tetrahydropyrrolo[3,4-d][1,3]thiazolo[3,2-a]pyridine-3-carboxylic acid]
- cag T4SS activity, structure-activity statements (cag T4SS [6]): inactive
- viability of bacterial cells (H. pylori): did not impact viability
- LogEC50, attenuation of cag T4SS-dependent IL-8 secretion (cag T4SS [1]): −0.648
- cag T4SS-dependent IL-8 secretion (cag T4SS [1]): minimal or no effects
- pEC50 (cag T4SS [1]): 3.65
- cag T4SS-dependent NF-κB activation (cag T4SS [2]): did not attenuate

Structure (SMILES): O=C(O)[C@H]1CSc2c(C3CC3)c(Cc3cccc4ccccc34)cc(=O)n21 [JG14, (S)-8-cyclopropyl-7-(naphthalen-1-ylmethyl)-5-oxo-2,3-dihydro-5H-thiazolo[3,2-a]pyridine-3-carboxylic acid]
- T4SS Inhibiton [50 μM] (TLR9 Activation Assay) (H. pylori cag T4SS): ++

Structure (SMILES): O=C(O)[C@@H]1CSc2c(C3CC3)c(Cc3ccc4ccccc4c3)cc(=O)n21 [KSK61, (R)-8-cyclopropyl-7-(naphthalen-2-ylmethyl)-5-oxo-2,3-dihydro-5H-thiazolo[3,2-a]pyridine-3-carboxylic acid]
- T4SS Inhibiton [50 μM] (TLR9 Activation Assay) (H. pylori cag T4SS): ++

Structure (SMILES): O=C(O)C1CSc2c(C3CC3)c(Cc3ccc(C(F)(F)F)c4ccccc34)cc(=O)n21 (stereo not shown) [KSK88, 8-cyclopropyl-5-oxo-7-((4-(trifluoromethyl)naphthalen-l1yl)methyl)-2,3-dihydro-5H-thiazolo[3,2-a]pyridine-3-carboxylic acid]
- T4SS Inhibiton [50 μM] (TLR9 Activation Assay) (H. pylori cag T4SS): +++ (Very good T4SS inhibition (reproducibly inhibits T4SS activity by at least 50%, with representative results of about 80% inhibition at higher concentrations))

Structure (SMILES): O=C(Nc1ccccc1)C1CSc2c(C3CC3)c(Cc3cccc4ccccc34)cc(=O)n21 (stereo not shown) [KSK165]
- T4SS Inhibiton [50 μM] (TLR9 Activation Assay) (H. pylori cag T4SS): +++ (Very good T4SS inhibition (reproducibly inhibits T4SS activity by at least 50%, with representative results of about 80% inhibition at higher concentrations))

Structure (SMILES): O=C(O)[C@@H]1CSc2c(C3CC3)c3c(-c4cccc5ccccc45)n[nH]c3c(=O)n21 [MS218]
- cag T4SS activity, structure-activity statements (cag T4SS [6]): inactive

Structure (SMILES): O=C([O-])[C@@H]1CSc2c(C3CC3)c(Cc3cccc4ccccc34)c(CN3CCOCC3)c(=O)n21.[Li+] [NP048]
- cag T4SS activity, structure-activity statements (cag T4SS [6]): abolished activity

Structure (SMILES): O=C(O)C1CSc2c(C3CC3)c(Cc3ccc(OC4O[C@H](CO)[C@@H](O)[C@@H](O)[C@@H]4O)c4ccccc34)cc(=O)n21 (stereo partly drawn) [PS402, 8-cyclopropyl-5-oxo-7-((4-(((3S,4R,5S,6R)-3,4,5-trihydroxy-6-(hydroxymethyl)tetrahydro-2H-pyran-2-yl)oxy)naphthalen-1-yl)methyl)-2,3-dihydro-5H-thiazolo[3,2-a]pyridine-3-carboxylic acid]
- T4SS Inhibiton [50 μM] (TLR9 Activation Assay) (H. pylori cag T4SS): ++

Structure (SMILES): O=C([O-])[C@@H]1CSc2c(-c3ccccc3)c(Cc3cccc4ccccc34)cc(=O)n21.[Li+] [PhenylC8]
- cag T4SS activity, structure-activity statements (cag T4SS [6]): not tolerated

Structure (SMILES): O=C(O)C1CS(=O)(=O)c2c(C3CC3)c(Cc3cccc4ccccc34)cc(=O)n21 (stereo not shown) [TW460, 8-cyclopropyl-7-(naphthalen-1-ylmethyl)-5-oxo-2,3-dihydro-5H-thiazolo[3,2-a]pyridine-3-carboxylic acid 1,1-dioxide]
- T4SS Inhibiton [50 μM] (TLR9 Activation Assay) (H. pylori cag T4SS): +
